The values below come from patent publication EP4745136A1, “PROTEIN TYROSINE PHOSPHATASE INHIBITOR, COMPOSITION COMPRISING SAME, AND MEDICAL USE THEREOF” (Shenzhen Zhongge Biological Technology Co., Ltd., priority 2023, dated 2025).

Assay [1] concerns the target T1, PTPN2 (Homo sapiens, UniProt P17706).
T1 construct: purchased Sino biological 10570-H20B
T1 sequence (P17706 1-415): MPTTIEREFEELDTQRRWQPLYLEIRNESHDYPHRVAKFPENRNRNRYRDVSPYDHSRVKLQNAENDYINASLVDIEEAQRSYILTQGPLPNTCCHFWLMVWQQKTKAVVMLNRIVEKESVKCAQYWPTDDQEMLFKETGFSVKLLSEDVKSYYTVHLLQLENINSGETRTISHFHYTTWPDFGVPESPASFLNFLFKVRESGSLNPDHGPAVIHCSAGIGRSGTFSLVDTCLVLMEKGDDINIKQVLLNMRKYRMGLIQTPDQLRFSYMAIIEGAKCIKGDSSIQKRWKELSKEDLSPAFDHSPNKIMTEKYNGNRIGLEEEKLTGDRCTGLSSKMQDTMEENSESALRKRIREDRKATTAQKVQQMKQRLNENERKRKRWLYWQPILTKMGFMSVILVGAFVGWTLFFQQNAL
Nature of the assay: PTPN2 inhibitory activity assay (HTRF). Type of assay: biochemical. Conditions: PTPN2 final concentration 1 nM, substrate 1 µM, 40 min at room temperature. The protocol: The present invention employs HTRF assay to characterize the inhibitory activity of compounds against PTPN2. The specific experimental process was as follows: compounds were transferred to a 384-well plate (PE# 6007290) using ECHO, and enzymatic reaction buffer (50 mM HEPES pH 7.5, 10 mM EDTA,0.01% Tween 20, 2 mM DTT) was prepared. PTPN2 (Sino biological #10570-H20B) was diluted in the reaction buffer, PTPN2 (final concentration 1 nM) was added and incubated with the compound at room temperature for 10 min, then the substrate (final concentration 1 µM) (biotin-(NH-CH2-CH2-O-CH2-CH2-O-CH2-CO)-T-R-D-I-(PY)-E-T-D-Y-Y-R-K-K-NH2) (Genscript) was added, and the reaction was terminated by adding a quencher after incubation at room temperature for 40 min. A final concentration of 10 nM Eu-anti-P (PY20) antibody (Cisbio#AD0066) and 15 nM APC-Streptavidin (Cisbio#AD0201) was added and incubated at room temperature for 1 hour. The fluorescence values of the reacted 384-well plates were read at 620 nm and 665 nm using Envision, and the IC50 value of inhibiting PTPN2 enzyme activity (PTPN 2 IC50) was fitted by nonlinear regression analysis of a four-parameter logistic equation.

In assay [2] the test system is B16F10 cells. The assay is described as follows: B16F10 mIFNγ-induced cell growth inhibition assay (CTG). The class given is cell-based. The protocol:
40 µL (150 cells/well) of B16F10 cells (source ATCC Cat#CRL-6475) were inoculated into a 384-well plate, and the compounds were transferred to the 384-well plate containing cells using EHCO. One group of cells was added with 10 µL of complete medium (RPMI 1640 medium+10% FBS) without mIFNγ, one group was added with 10 µL of complete medium containing mIFNγ (source R&D Cat#485-MI/CF, final concentration 25 ng/ml), and different concentrations of compounds (DMSO content 0.5%) were added to the reaction system. The cell culture plates were incubated at 37 °C in 5% CO2 for 96 h. 25 µL of CTG was added, Envision was used for reading, the cell growth inhibition IC50 value (Cell IC50) was fitted by nonlinear regression analysis using a four-parameter logistic equation with DMSO/mIFNγ as the negative control and [drawing 152] as the positive control.

The mark [3] stands for this setting: Mus musculus, B16-F10, 96 h, B16F10 cells with mIFNγ final concentration 25 ng/ml, CTG readout.
Setting [4] is: Mus musculus, B16-F10; B16F10 cells with mIFNγ final concentration 25 ng/ml, 96 h, CTG readout.
Where [5] appears, read: B16F10 cells with mIFNγ final concentration 25 ng/ml, 96 h, CTG readout.

SMILES strings stand for the structures. Where only a bound is given, the exact number is not on record here.

On to `CC(C)(CCN[C@H]1Cc2c(cc(O)c(N3CC(=O)NS3(=O)=O)c2F)C2CC21)C(F)(F)F` (some centres unmarked) [Compound 9], for which, in assay [1], the IC50 is no more than 0.02 µM. In addition, in assay [2] (setting [3]), the GI50 is 1 to 10 µM.
The compound `CC(C)(C)CCN[C@H]1Cc2c(cc(O)c(N3CC(=O)NS3(=O)=O)c2F)C2CC21` (some centres unmarked) [Compound 10] showed an IC50 in assay [1] of no more than 0.02 µM. Also, the GI50 in assay [2] (setting [4]) fell in the range of 1 to 10 µM.
In turn, `O=C1CN(c2c(O)cc3c(c2F)C[C@H](NCCC2CCCC2)C2CC32)S(=O)(=O)N1` (some centres unmarked) [Compound 17] came in with an IC50 in assay [1] of no more than 0.02 µM. The GI50 in assay [2] (setting [4]) lay within 1 to 10 µM.
For the compound `CC(C)CCN[C@H]1Cc2c(cc(O)c(N3CC(=O)NS3(=O)=O)c2F)C2CC21` (single isomer, unassigned) [Compound 3], in assay [1], the IC50 was no more than 0.02 µM. This compound yielded a GI50 in assay [2] (setting [5]) of no more than 1 µM.
The like results for `CC(C)CCNCC1Cc2cc(O)c(N3CC(=O)NS3(=O)=O)c(F)c2/C1=C/F` (single isomer, unassigned) [Compound 6] were, in that order, no more than 0.02 µM and no more than 1 µM.
For the compound `O=C1CN(c2c(O)cc3c(c2F)C[C@H](NCC2CCCCO2)C2CC32)S(=O)(=O)N1` (some centres unmarked) [Compound 16], the IC50 in assay [1] was 0.1 to 0.5 µM. For the same compound, the GI50 in assay [2] (setting [4]) fell in the range of 1 to 10 µM.
In turn, `CC(C)CCNCC1Cc2cc(O)c(N3CC(=O)NS3(=O)=O)c(F)c2/C1=C/F` (single isomer, unassigned) [Compound 5] registered an IC50 in assay [1] of 0.1 to 0.5 µM. In assay [2] (setting [5]), this compound showed a GI50 of 10 to 100 µM.
The compound `CC(C)CCNCC1Cc2cc(O)c(N3CC(=O)NS3(=O)=O)c(F)c2/C1=C/F` (racemic) [Compound 4] gave an IC50 in assay [1] of no more than 0.02 µM. Moreover, the GI50 in assay [2] (setting [3]) is 1 to 10 µM.
Compound `CC(C)CCNCC1Cc2cc(O)c(N3CC(=O)NS3(=O)=O)c(F)c2/C1=C\F` (racemic) [Compound 7] came in with an IC50 in assay [1] of 0.02 to 0.1 µM. The compound further had a GI50 in assay [2] (setting [3]) of 10 to 100 µM.
As to `CC(C)CCN[C@H]1Cc2c(cc(O)c(N3CC(=O)NS3(=O)=O)c2F)C2CC21` (single isomer, unassigned) [Compound 2], the IC50 in assay [1] lay within 0.1 to 0.5 µM. In assay [2] (setting [5]), the GI50 lay in the range of 10 to 100 µM.
Compound `O=C1CN(c2c(O)cc3c(c2F)C[C@H](NCCC2CCCCC2)C2CC32)S(=O)(=O)N1` (some centres unmarked) [Compound 11] had an IC50 in assay [1] of no more than 0.02 µM. The compound further yielded a GI50 in assay [2] (setting [4]) of 10 to 100 µM.
Consider `O=C1CN(c2c(O)cc3c(c2F)C[C@H](NCCCC(F)(F)F)C2CC32)S(=O)(=O)N1` (some centres unmarked) [Compound 8], for which, in assay [1], the IC50 is no more than 0.02 µM. The same compound gave a GI50 in assay [2] (setting [3]) of no more than 1 µM.
On to `CC(C)CCN[C@H]1Cc2c(cc(O)c(N3CC(=O)NS3(=O)=O)c2F)C2CC21` (some centres unmarked) [Compound 1], for which, in assay [1], the IC50 is no more than 0.02 µM. In assay [2] (setting [3]), this compound gave a GI50 of 1 to 10 µM.

A word on the IC50: it is the concentration that inhibits the measured activity by half. Broadly, the GI50 is the concentration at which growth is held to half of that of the control. Lower therefore signals greater sensitivity of the cells.
